Results reported in ChEMBL document CHEMBL4715878 (J Med Chem, 2020).

Columns and labels:
MCF7 [1] = experiment: Antiproliferative activity against human MCF7 cells assessed as reduction in cell viability incubated for 72 hrs by WST8 assay; assay type: functional, cell-based; settings: MCF7, 72 h
MDA-MB-231 = experiment: Antiproliferative activity against human MDA-MB-231 cells assessed as reduction in cell viability incubated for 72 hrs by WST8 assay; assay type: functional, cell-based; settings: MDA-MB-231, 72 h
BT-474 = experiment: Antiproliferative activity against human BT474 cells assessed as reduction in cell viability incubated for 72 hrs by WST8 assay; assay type: functional, cell-based; settings: BT-474, 72 h
AU565 = experiment: Antiproliferative activity against human AU565 cells assessed as reduction in cell viability incubated for 72 hrs by WST8 assay; assay type: functional, cell-based; settings: AU565, 72 h
MDA-MB-468 [2] = experiment: Antiproliferative activity against human MDA-MB-468 cells assessed as cell growth inhibition after 48 hrs by SRB assay; assay type: functional
MCF7 [3] = experiment: Potency index, ratio of lapatinib IC50 to test compound IC50 for antiproliferative activity against human MCF7 cells; assay type: functional
[4] = biological target: Platelet-derived growth factor receptor alpha (Homo sapiens, UniProt P16234); experiment: Effect on human recombinant N-terminal GST-tagged PDGFRalpha (550 to end residues) expressed in baculovirus infected Sf9 insect cells in presence of substrate and [gamma-32ATP] at 10 uM incubated for 30 mins by scintillation counting based radiometry assay relative to control; settings: 0.5 h, read-out: Activity
[5] = biological target: Receptor tyrosine-protein kinase erbB-4 (Homo sapiens, UniProt Q15303); experiment: Effect on human recombinant N-terminal GST-tagged HER4 (682 to 993) expressed in baculovirus infected Sf9 insect cells in presence of substrate and [gamma-32ATP] at 10 uM incubated for 30 mins by scintillation counting based radiometry assay relative to control; settings: 0.5 h, read-out: Activity
[6] = biological target: Receptor tyrosine-protein kinase erbB-2 (Homo sapiens, UniProt P04626); settings: Sf9, human, 0.5 h
[7] = tested on: Panel NCI-60 (60 carcinoma cell lines); experiment: Antiproliferative activity against human NCI60 cells assessed as mean cell growth at 10 uM after 48 hrs by SRB assay relative to control; assay type: functional
MCF7 [8] = experiment: Antiproliferative activity against human MCF7 cells assessed as lethality at 10 uM after 48 hrs by SRB assay relative to control; assay type: functional
MDA-MB-468 [9] = experiment: Antiproliferative activity against human MDA-MB-468 cells assessed as lethality at 10 uM after 48 hrs by SRB assay relative to control; assay type: functional
[10] = tested on: Panel NCI-60 (60 carcinoma cell lines); experiment: Antiproliferative activity against human NCI60 cells assessed as lethality at 10 uM after 48 hrs by SRB assay relative to control; assay type: functional
MDA-MB-468 [11] = experiment: Antiproliferative activity against human MDA-MB-468 cells assessed as cell growth inhibition at 10 uM after 48 hrs by SRB assay relative to control; assay type: functional; settings: read-out: GI
[12] = Antiproliferative activity against human BC assessed as cell growth inhibition at 10 uM after 48 hrs by SRB assay relative to control; assay type: functional; settings: read-out: GI
[13] = Antiproliferative activity against human MDA-MB-231 cells assessed as lethality at 10 uM after 48 hrs by SRB assay relative to control; assay type: functional, MDA-MB-23
[14] = Antiproliferative activity against human BC assessed as lethality at 10 uM after 48 hrs by SRB assay relative to control; assay type: functional

Receptor tyrosine-protein kinase erbB-4, sequence (Q15303 whole entry): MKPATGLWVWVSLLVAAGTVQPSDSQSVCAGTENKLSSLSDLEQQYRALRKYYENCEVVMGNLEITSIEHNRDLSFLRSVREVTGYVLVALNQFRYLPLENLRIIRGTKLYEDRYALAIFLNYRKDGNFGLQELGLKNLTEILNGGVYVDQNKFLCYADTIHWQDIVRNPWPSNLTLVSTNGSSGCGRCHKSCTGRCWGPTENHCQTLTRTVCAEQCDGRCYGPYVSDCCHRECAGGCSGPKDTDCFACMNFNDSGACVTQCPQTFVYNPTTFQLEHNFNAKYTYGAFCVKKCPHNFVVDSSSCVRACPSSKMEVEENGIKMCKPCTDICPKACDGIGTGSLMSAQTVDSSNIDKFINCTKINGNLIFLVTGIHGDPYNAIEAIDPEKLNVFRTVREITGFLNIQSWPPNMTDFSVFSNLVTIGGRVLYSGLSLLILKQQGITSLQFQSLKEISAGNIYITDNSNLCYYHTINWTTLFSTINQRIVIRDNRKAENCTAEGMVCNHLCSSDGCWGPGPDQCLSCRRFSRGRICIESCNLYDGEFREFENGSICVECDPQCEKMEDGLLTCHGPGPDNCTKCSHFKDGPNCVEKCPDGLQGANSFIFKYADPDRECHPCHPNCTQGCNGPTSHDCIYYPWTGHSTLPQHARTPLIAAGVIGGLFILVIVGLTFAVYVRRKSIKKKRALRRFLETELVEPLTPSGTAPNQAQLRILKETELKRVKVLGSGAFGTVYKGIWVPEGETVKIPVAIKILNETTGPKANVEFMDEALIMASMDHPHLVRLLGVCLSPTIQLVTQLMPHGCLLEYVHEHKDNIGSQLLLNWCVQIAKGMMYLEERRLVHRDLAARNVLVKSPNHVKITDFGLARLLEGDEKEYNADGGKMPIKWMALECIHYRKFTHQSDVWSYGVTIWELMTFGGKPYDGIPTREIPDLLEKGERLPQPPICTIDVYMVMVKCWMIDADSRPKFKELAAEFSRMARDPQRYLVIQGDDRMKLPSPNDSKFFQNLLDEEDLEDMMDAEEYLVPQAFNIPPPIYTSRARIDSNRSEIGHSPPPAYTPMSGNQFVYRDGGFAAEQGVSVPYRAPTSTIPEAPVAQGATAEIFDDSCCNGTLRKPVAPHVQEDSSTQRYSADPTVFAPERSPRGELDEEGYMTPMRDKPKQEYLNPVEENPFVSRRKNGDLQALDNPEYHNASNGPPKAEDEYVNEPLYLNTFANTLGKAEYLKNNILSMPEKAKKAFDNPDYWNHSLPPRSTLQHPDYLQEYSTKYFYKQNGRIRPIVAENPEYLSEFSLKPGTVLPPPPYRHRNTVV
Platelet-derived growth factor receptor alpha, sequence (P16234 whole entry): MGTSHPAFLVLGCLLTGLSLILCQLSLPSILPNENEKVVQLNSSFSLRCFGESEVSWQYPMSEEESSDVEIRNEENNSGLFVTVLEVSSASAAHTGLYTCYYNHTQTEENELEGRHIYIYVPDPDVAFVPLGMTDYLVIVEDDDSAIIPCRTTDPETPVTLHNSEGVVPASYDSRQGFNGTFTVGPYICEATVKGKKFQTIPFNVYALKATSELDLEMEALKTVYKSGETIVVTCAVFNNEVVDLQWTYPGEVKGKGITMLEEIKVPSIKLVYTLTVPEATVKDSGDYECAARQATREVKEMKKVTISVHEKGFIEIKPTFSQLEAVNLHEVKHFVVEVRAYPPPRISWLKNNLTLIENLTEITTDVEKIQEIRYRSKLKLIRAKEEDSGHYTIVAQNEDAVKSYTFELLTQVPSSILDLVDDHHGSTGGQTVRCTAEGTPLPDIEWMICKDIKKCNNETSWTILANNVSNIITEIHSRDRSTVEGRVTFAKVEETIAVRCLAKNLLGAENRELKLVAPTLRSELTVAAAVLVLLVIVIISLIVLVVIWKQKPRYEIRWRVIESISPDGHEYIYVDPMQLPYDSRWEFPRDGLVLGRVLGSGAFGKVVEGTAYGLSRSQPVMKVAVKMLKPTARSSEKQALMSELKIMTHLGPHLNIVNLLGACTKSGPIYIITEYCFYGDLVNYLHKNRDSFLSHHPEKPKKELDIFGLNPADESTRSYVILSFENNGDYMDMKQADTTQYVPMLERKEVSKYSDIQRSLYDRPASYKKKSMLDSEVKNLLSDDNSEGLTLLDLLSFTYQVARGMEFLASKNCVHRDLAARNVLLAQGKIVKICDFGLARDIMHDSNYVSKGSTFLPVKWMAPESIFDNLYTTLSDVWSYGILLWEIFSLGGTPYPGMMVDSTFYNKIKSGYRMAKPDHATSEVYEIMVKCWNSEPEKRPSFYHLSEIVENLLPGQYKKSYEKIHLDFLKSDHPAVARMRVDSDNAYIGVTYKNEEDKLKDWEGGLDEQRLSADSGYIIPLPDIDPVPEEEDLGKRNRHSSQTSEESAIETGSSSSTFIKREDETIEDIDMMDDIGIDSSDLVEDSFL
Receptor tyrosine-protein kinase erbB-2, sequence (P04626 whole entry): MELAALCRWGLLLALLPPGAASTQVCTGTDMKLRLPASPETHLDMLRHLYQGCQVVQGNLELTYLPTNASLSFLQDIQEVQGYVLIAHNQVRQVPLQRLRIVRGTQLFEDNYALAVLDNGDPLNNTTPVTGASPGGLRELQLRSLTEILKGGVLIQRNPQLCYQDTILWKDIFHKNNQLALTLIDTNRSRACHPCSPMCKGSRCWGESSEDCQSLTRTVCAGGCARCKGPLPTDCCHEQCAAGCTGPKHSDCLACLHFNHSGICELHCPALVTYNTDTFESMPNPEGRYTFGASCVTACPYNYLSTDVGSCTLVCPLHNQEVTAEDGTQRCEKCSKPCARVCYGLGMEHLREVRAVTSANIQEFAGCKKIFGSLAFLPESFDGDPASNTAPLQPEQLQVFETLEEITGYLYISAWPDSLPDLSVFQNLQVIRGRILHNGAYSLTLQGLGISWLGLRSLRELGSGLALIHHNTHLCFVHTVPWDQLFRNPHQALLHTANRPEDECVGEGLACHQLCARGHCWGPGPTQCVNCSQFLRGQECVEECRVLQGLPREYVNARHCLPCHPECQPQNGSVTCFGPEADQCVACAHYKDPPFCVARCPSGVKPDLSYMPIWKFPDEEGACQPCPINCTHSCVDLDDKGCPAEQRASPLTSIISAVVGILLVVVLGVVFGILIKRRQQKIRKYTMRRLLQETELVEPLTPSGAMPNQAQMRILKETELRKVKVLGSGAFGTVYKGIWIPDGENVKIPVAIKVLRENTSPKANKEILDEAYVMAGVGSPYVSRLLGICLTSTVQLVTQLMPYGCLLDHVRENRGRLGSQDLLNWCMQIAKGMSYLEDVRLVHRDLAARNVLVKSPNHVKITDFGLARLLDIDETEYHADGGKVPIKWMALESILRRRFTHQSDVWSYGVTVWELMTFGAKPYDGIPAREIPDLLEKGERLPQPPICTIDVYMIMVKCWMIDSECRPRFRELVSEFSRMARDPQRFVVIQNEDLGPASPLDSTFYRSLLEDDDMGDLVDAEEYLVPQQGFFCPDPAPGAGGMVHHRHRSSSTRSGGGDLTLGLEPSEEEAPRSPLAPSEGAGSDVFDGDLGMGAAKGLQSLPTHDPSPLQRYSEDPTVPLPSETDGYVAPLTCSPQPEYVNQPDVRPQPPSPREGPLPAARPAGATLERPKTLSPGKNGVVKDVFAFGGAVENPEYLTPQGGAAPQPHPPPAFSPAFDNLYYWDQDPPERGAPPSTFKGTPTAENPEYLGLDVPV

In the case of `Cc1cccc(Oc2ccc(Nc3ncnc4ccc(NC(=O)CN5CCOCC5)cc34)cc2Cl)c1`, the IC50 (MCF7 [1]) is reported as 9640 nM, the IC50 (MDA-MB-231) is reported as 13800 nM and the IC50 (BT-474) is reported as 91 nM. For the same compound, the IC50 (AU565) was 152 nM.
Work on `Cc1cccc(Oc2ccc(Nc3ncnc4ccc(NC(=O)CN(C)C)cc34)cc2Cl)c1` yielded an IC50 (MCF7 [1]) of 2700 nM, an IC50 (MDA-MB-231) of 4510 nM and an IC50 (BT-474) of 134 nM. For the same compound, the IC50 (AU565) was 154 nM and the GI50 (MDA-MB-468 [2]) was 200 nM.
Work on `O=C(Nc1ccc2ncnc(Nc3ccc(Oc4cccc(F)c4)c(Cl)c3)c2c1)c1ccc(CN2CCOCC2)cc1` yielded an IC50 (MCF7 [1]) of 6220 nM, an IC50 (MDA-MB-231) of 11500 nM and an IC50 (BT-474) of 540 nM. The IC50 (AU565) was 923 nM.
Compound `CN1CCN(CC(=O)Nc2ccc3ncnc(Nc4ccc(Oc5cccc(F)c5)c(Cl)c4)c3c2)CC1` has an IC50 (MCF7 [1]) of 5990 nM, an IC50 (MDA-MB-231) of 5450 nM and an IC50 (BT-474) of 221 nM. For the same compound, the IC50 (AU565) was 491 nM.
`CCN(CC)CC(=O)Nc1ccc2ncnc(Nc3ccc(Oc4cccc(C)c4)c(Cl)c3)c2c1` gave an IC50 (MCF7 [1]) of 2680 nM, an IC50 (MDA-MB-231) of 2830 nM and an IC50 (BT-474) of 265 nM. For the same compound, the IC50 (AU565) was 219 nM.
`Fc1cccc(COc2ccc(Nc3ncnc4ccc(OCCCN5CCOCC5)cc34)cc2Cl)c1` showed an IC50 (MCF7 [1]) of 6190 nM, an IC50 (MDA-MB-231) of 7320 nM and an IC50 (BT-474) of 81 nM. It also gave an IC50 (AU565) of 149 nM.
For `CN1CCN(Cc2ccc(C(=O)Nc3ccc4ncnc(Nc5ccc(Oc6cccc(F)c6)c(Cl)c5)c4c3)cc2)CC1`, the IC50 (MCF7 [1]) was 1620 nM, the IC50 (MDA-MB-231) was 1900 nM and the IC50 (BT-474) was 506 nM. The IC50 (AU565) was 767 nM and the “Ratio IC50” value (MCF7 [3]) was “<=20”.
Compound `CNC(=O)c1cc(Oc2ccc(NC(=O)Nc3ccc(Cl)c(C(F)(F)F)c3)cc2)ccn1` [SORAFENIB] has an activity at 10 µM [4] of -55% and an activity at 10 µM [5] of -60%.
`CS(=O)(=O)CCNCc1ccc(-c2ccc3ncnc(Nc4ccc(OCc5cccc(F)c5)c(Cl)c4)c3c2)o1` [LAPATINIB] gave an IC50 (MCF7 [1]) of 6300 nM, an IC50 (MDA-MB-231) of 10400 nM and an IC50 (BT-474) of 64 nM. The activity at 10 µM [6] was -52%, the activity at 10 µM [4] was 56% and the IC50 (AU565) was 64 nM. The activity at 10 µM [5] was -99%.
In the case of `CN(C)CC(=O)Nc1ccc2ncnc(Nc3ccc(Oc4cccc(C(F)(F)F)c4)c(Cl)c3)c2c1`, the IC50 (MCF7 [1]) is reported as 5100 nM, the IC50 (MDA-MB-231) is reported as 2660 nM and the IC50 (BT-474) is reported as 478 nM. It also gave an IC50 (AU565) of 408 nM.
`CCN(CC)CC(=O)Nc1ccc2ncnc(Nc3ccc(Oc4cccc(F)c4)c(Cl)c3)c2c1` gave an IC50 (MCF7 [1]) of 5680 nM, an IC50 (MDA-MB-231) of 3920 nM and an IC50 (BT-474) of 532 nM. The IC50 (AU565) was 684 nM.
`CN1CCN(CC(=O)Nc2ccc3ncnc(Nc4ccc(Oc5cccc(C(F)(F)F)c5)c(Cl)c4)c3c2)CC1` showed an Activity [7] of 11.85%, an Activity (MCF7 [8]) of 11.7% and an IC50 (MCF7 [1]) of 2070 nM. It also gave an IC50 (MDA-MB-231) of 2560 nM, an Activity (MDA-MB-468 [9]) of 11.7% and an Activity [10] of 1.3%. It also gave an IC50 (BT-474) of 369 nM, an inhibition of growth at 10 µM (MDA-MB-468 [11]) of 18.8% and an inhibition of growth at 10 µM [12] of at most 78.7%. The Activity [13] was 11.7%, the IC50 (AU565) was 441 nM and the Activity [14] was “<=78.7%”.
For `Fc1cccc(Oc2ccc(Nc3ncnc4ccc(OCCCN5CCOCC5)cc34)cc2Cl)c1`, the IC50 (MCF7 [1]) was 8330 nM, the IC50 (MDA-MB-231) was 10200 nM and the IC50 (BT-474) was 283 nM. It also gave an IC50 (AU565) of 311 nM.
Compound `CN1CCN(CCCOc2ccc3ncnc(Nc4ccc(Oc5cccc(F)c5)c(Cl)c4)c3c2)CC1` has an Activity [7] of 11.85%, an IC50 (MCF7 [1]) of 913 nM and an IC50 (MDA-MB-231) of 1700 nM. It also gave an Activity [10] of 1.3%, an IC50 (BT-474) of 221 nM and an inhibition of growth at 10 µM (MDA-MB-468 [11]) of 18.8%. For the same compound, the inhibition of growth at 10 µM [12] was at most 78.7%, the IC50 (AU565) was 419 nM and the Activity [14] was “<=78.7%”. The “Ratio IC50” value (MCF7 [3]) was “<=20”.
Compound `CN(C)Cc1ccc(C(=O)Nc2ccc3ncnc(Nc4ccc(Oc5cccc(F)c5)c(Cl)c4)c3c2)cc1` has an Activity [7] of 11.85%, an Activity (MCF7 [8]) of 11.7% and an IC50 (MCF7 [1]) of 2640 nM. It also gave an IC50 (MDA-MB-231) of 5000 nM, an Activity (MDA-MB-468 [9]) of 11.7% and an Activity [10] of 1.3%. The IC50 (BT-474) was 339 nM, the inhibition of growth at 10 µM (MDA-MB-468 [11]) was 18.8% and the inhibition of growth at 10 µM [12] was at most 78.7%. The Activity [13] was 11.7%, the IC50 (AU565) was 225 nM and the Activity [14] was “<=78.7%”.
For `FC(F)(F)c1cccc(Oc2ccc(Nc3ncnc4ccc(OCCCN5CCOCC5)cc34)cc2Cl)c1`, the IC50 (MCF7 [1]) was 5530 nM, the IC50 (MDA-MB-231) was 6730 nM and the IC50 (BT-474) was 246 nM. For the same compound, the IC50 (AU565) was 348 nM and the GI50 (MDA-MB-468 [2]) was 500 nM.
